Measurements from PubChem BioAssay (NCI).
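48-hour exposure; five concentrations; linearly interpolated endpoints. Here, GI50 denotes the concentration required for 50% inhibition of growth. The concentration for full growth arrest is given as TGI.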

How the values were obtained:
Assay in all cases: inhibition of tumour cell growth, NCI panel, 48 h
HT29 colon = system: HT29 colon
SK-OV-3 ovarian = system: SK-OV-3 ovarian
UACC-257 melanoma = system: UACC-257 melanoma
MDA-MB-231 breast = system: MDA-MB-231 breast
T-47D breast = system: T-47D breast
HOP-62 NSCLC = system: HOP-62 NSCLC
KM12 colon = system: KM12 colon
RXF 393 renal = system: RXF 393 renal
OVCAR-4 ovarian = system: OVCAR-4 ovarian
NCI-H23 lung = system: NCI-H23 lung

| Structure (SMILES) | GI50 (HT29 colon) [µM] | TGI (HT29 colon) [µM] | GI50 (SK-OV-3 ovarian) [µM] | TGI (SK-OV-3 ovarian) [µM] | GI50 (UACC-257 melanoma) [µM] | TGI (UACC-257 melanoma) [µM] | GI50 (MDA-MB-231 breast) [µM] | TGI (MDA-MB-231 breast) [µM] | GI50 (T-47D breast) [µM] | TGI (T-47D breast) [µM] | GI50 (HOP-62 NSCLC) [µM] | TGI (HOP-62 NSCLC) [µM] | GI50 (KM12 colon) [µM] | TGI (KM12 colon) [µM] | GI50 (RXF 393 renal) [µM] | TGI (RXF 393 renal) [µM] | GI50 (OVCAR-4 ovarian) [µM] | TGI (OVCAR-4 ovarian) [µM] | GI50 (NCI-H23 lung) [µM] | TGI (NCI-H23 lung) [µM] |
| --- | --- | --- | --- | --- | --- | --- | --- | --- | --- | --- | --- | --- | --- | --- | --- | --- | --- | --- | --- | --- |
| NS(=O)(=O)c1cccc(N=Cc2c(O)[nH]c3ccccc23)c1 | > 25 | > 25 | > 18.5 | > 25 | > 25 | > 25 | > 25 | > 25 | > 25 | > 25 | > 25 | > 25 | 8.04 | > 25 | > 25 | > 25 | > 25 | > 25 | > 25 | > 25 |
| c1cn2cc(-c3ccc4cn[nH]c4c3)nc(Nc3ccc(N4CCOCC4)cc3)c2n1 | 9.01 | 37 | 6.43 | 19.6 | 16.4 | 44.8 | 12.6 | 26.7 | 12 | 30.9 | 3.81 | 16.1 | 0.479 | 59 | 2.47 | 18.3 | 7.78 | 36.2 | 15.2 | 55 |
| COc1cccc(/C=C/c2cnc3ccccc3n2)c1OC | – | 98.1 | – | > 100 | – | > 100 | – | > 100 | – | 82.9 | – | 64.9 | – | > 100 | – | 96.1 | – | > 100 | – | > 100 |
| Cc1cc(Cc2cc(C)cc(C(C)(C)C)c2O)c(O)c(C(C)(C)C)c1 | 4.58 | 15.6 | 11.9 | 24.2 | 9.55 | 21.8 | 9.83 | 21.7 | 4.7 | 16.8 | 14.1 | 27.1 | 3.79 | 13.6 | 6.37 | 18.9 | 11.6 | 23.9 | 4.23 | 16.3 |
| c1ccc(-n2nnnc2-c2cccc3ccccc23)cc1 | 0.357 | > 20.3 | 0.908 | 13.5 | 27.8 | > 100 | 1.34 | 28.8 | 0.461 | > 100 | 0.765 | > 100 | 0.396 | 22.8 | 1.01 | > 20.1 | 11.4 | > 100 | 1.28 | > 100 |
| CSc1ccc2c3c(n(C[C@H](O)CO)c(=O)c2c1)-c1ccccc1C3=O | 1.33 | 6.38 | 6.06 | 34.2 | 13.2 | 42.6 | 3.13 | 15.1 | 2.85 | 45.8 | 1.83 | 7.27 | 2.26 | 10.3 | 3.5 | 23.3 | 6.38 | > 100 | 2.95 | 12.7 |
| N#CC1=C(N)NC(=O)NC12Nc1ccccc1S2 (centres undefined) | 36.7 | > 100 | 30.3 | > 70.7 | 1.42 | – | 10.4 | 31.2 | 26.7 | > 100 | 23.1 | 56.7 | 26.5 | > 68.4 | 16.9 | > 52.7 | 43.4 | > 100 | 19.3 | 47.7 |
| COc1cc(/C=C2\CCC(CN(C)C)C2=O)ccc1OC(=O)c1ccccc1 (centres undefined) | – | 26.6 | – | 52.4 | – | 26.6 | – | 19.1 | – | 7.9 | – | 23.5 | – | 13.7 | – | 15.4 | – | 25.5 | – | 36.7 |
| NC1=NC(c2ccc(Cl)cc2)C2=C(N1)/C(=C/c1ccc(Cl)cc1)CCC2 (centres undefined) | 3.14 | 9.78 | 23.5 | > 100 | 7.14 | 28.1 | > 29.6 | > 56.1 | 11.6 | > 100 | 15 | 53 | 2.32 | 5.27 | 2.05 | 4.45 | 13.9 | 76.5 | 5.98 | 26.7 |
| Cc1ccc2c(O)c(O)cc(NC(C)CCCN)c2n1 (centres undefined) | 7.04 | > 72.4 | > 78.6 | > 100 | 19.8 | 54.5 | 7.22 | 74 | 6.57 | 38.3 | 28.1 | > 100 | 25 | 98.9 | > 69.1 | > 100 | 2.88 | 9.88 | 3.3 | 19.3 |
| C=C1C(=O)O[C@H]2[C@H]1CC/C(COC(=O)NCCc1c[nH]c3ccc(OC)cc13)=C\CC[C@@]1(C)O[C@@H]21 | 1.58 | 3.09 | 14.1 | 27.2 | 1.52 | 3.3 | 1.97 | 4.44 | 1.81 | 4.53 | 3.49 | 15.7 | 6.49 | 23.2 | 1.46 | 2.92 | 1.69 | 5.09 | 2.25 | 5.84 |
| COc1ccc(/C=C/C(=O)Oc2cc(O)cc(O)c2)cc1 | – | > 100 | – | > 100 | – | > 100 | – | > 100 | – | > 100 | – | 31.5 | – | 28.4 | – | > 100 | – | > 100 | – | > 100 |
| CCCCCCCCCCCCSC(=N)N | 2.2 | 5.73 | 17.4 | 33.5 | 13.8 | 27.3 | 2.03 | 8.28 | 2.03 | 4.34 | 10.7 | 28.9 | 3.33 | 11.3 | 6.64 | 26.6 | 7.93 | 27.9 | 16.3 | 32.8 |
| C=CCC1(O)c2cccc(NCCO)c2C(=O)c2c(NCCO)cccc21 | > 100 | > 100 | > 100 | > 100 | > 100 | > 100 | > 100 | > 100 | > 100 | > 100 | > 100 | > 100 | > 100 | > 100 | > 100 | > 100 | > 100 | > 100 | > 100 | > 100 |
